Patent publication US8247211B2, “Glycopeptide antibiotics” (American Cyanamid Company, priority 2001, dated 2012)
Converted amounts (≈) assume the structure as drawn.

What was measured:
Assay in all cases: In vitro antibacterial evaluation: minimum inhibitory concentration (MIC), broth dilution method
Type in all cases: cell-based
Enterococcus sp. = conditions: broth dilution, 18 hours at 35° C.
Procedure, shortened: (§1)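 Susceptibility determined by NCCLS-recommended broth dilution (M7-A2), Muller-Hinton II […]. Concentration span 64-0.06 μg/mL, inoculum 5×10^5 CFU/mL. Isolates include strains resistant to methicillin, penicillin and/or vancomycin.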

Staphylococcus sp. = conditions: broth dilution, 18 hours at 35° C.; for MIC Staphylococcus aureus-SMITH (GC 4543): strain SMITH GC 4543
Procedure, shortened: as §1

Streptococcus sp. = conditions: broth dilution, 18 hours at 35° C.
Procedure, shortened: as §1

Escherichia coli = conditions: broth dilution, 18 hours at 35° C.
[1] = Enterococcus faecalis (ATCC 29212)
[2] = Enterococcus faecalis (GC 2242)
[3] = Enterococcus faecalis (GC 2691)
[4] = Enterococcus faecalis (GC 3059)
[5] = Enterococcus faecalis (GC 4552)
[6] = Enterococcus faecalis (GC 4553)
[7] = Enterococcus faecalis (GC 4554)
[8] = Enterococcus faecalis (GC 6189)
[9] = Streptococcus agalactiae (GC 4564)
[10] = Streptococcus pneumoniae (ATCC 6301)
[11] = Streptococcus pneumoniae (GC 1894)
[12] = Streptococcus pneumoniae (GC 4565)
[13] = Streptococcus pyogenes (GC 4563)

In the case of `CC(c1ccccc1)C1NC(=O)CNC(=O)C(CO)NC(=O)C(C(O)C2CNC(=N)N2C2OC(CO)C(O)C(O)C2O)NC(=O)C(C(O)C2CNC(=N)N2)NC(=O)C(Cc2ccc3oc(-c4ccc(C(C)(C)C)cc4)nc3c2)NC1=O` (stereo not drawn) [Example 32, Cyclo[3-[2-(4-tert-butylphenyl)-1,3-benzoxazol-5-yl]alanyl-3-(2-iminoimidazolidin-4-yl)seryl-3-(3-hexopyranosyl-2-iminoimidazolidin-4-yl)serylserylglycyl-β-methylphenylalanyl]], the “MIC Enterococcus avium (GC 4558)” value (Enterococcus sp.; Enterococcus avium (GC 4558)) is reported as 4 µg/mL (≈ 3.55 µM), the “MIC Enterococcus faecalis (ATCC 29212)” value (Enterococcus sp.; [1]) is reported as 8 µg/mL (≈ 7.09 µM) and the “MIC Enterococcus faecalis (GC 2242)” value (Enterococcus sp.; [2]) is reported as 4 µg/mL (≈ 3.55 µM). The “MIC Enterococcus faecalis (GC 2691)” value (Enterococcus sp.; [3]) was 8 µg/mL (≈ 7.09 µM), the “MIC Enterococcus faecalis (GC 3059)” value (Enterococcus sp.; [4]) was 8 µg/mL (≈ 7.09 µM) and the “MIC Enterococcus faecalis (GC 4552)” value (Enterococcus sp.; [5]) was 8 µg/mL (≈ 7.09 µM). The “MIC Enterococcus faecalis (GC 4553)” value (Enterococcus sp.; [6]) was 8 µg/mL (≈ 7.09 µM), the “MIC Enterococcus faecalis (GC 4554)” value (Enterococcus sp.; [7]) was 4 µg/mL (≈ 3.55 µM) and the “MIC Enterococcus faecalis (GC 6189)” value (Enterococcus sp.; [8]) was 4 µg/mL (≈ 3.55 µM). The “MIC Enterococcus faecium (GC 2243)” value (Enterococcus sp.; Enterococcus faecium (GC 2243)) was 4 µg/mL (≈ 3.55 µM), the “MIC Enterococcus faecium (GC 4556)” value (Enterococcus sp.; Enterococcus faecium (GC 4556)) was 8 µg/mL (≈ 7.09 µM) and the “MIC Enterococcus faecium (GC 4557)” value (Enterococcus sp.; Enterococcus faecium (GC 4557)) was 2 µg/mL (≈ 1.77 µM). For the same compound, the “MIC Enterococcus avium (GC 4558)” value (Enterococcus sp.) was 4 µg/mL (≈ 3.55 µM), the “MIC Enterococcus faecalis (ATCC 29212)” value (Enterococcus sp.) was 8 µg/mL (≈ 7.09 µM) and the “MIC Enterococcus faecalis (GC 2242)” value (Enterococcus sp.) was 4 µg/mL (≈ 3.55 µM). The “MIC Enterococcus faecalis (GC 2691)” value (Enterococcus sp.) was 8 µg/mL (≈ 7.09 µM), the “MIC Enterococcus faecalis (GC 3059)” value (Enterococcus sp.) was 8 µg/mL (≈ 7.09 µM) and the “MIC Enterococcus faecalis (GC 4552)” value (Enterococcus sp.) was 8 µg/mL (≈ 7.09 µM). The “MIC Enterococcus faecalis (GC 4553)” value (Enterococcus sp.) was 8 µg/mL (≈ 7.09 µM), the “MIC Enterococcus faecalis (GC 4554)” value (Enterococcus sp.) was 4 µg/mL (≈ 3.55 µM) and the “MIC Enterococcus faecalis (GC 6189)” value (Enterococcus sp.) was 4 µg/mL (≈ 3.55 µM). The “MIC Enterococcus faecium (GC 2243)” value (Enterococcus sp.) was 4 µg/mL (≈ 3.55 µM), the “MIC Enterococcus faecium (GC 4556)” value (Enterococcus sp.) was 8 µg/mL (≈ 7.09 µM) and the “MIC Enterococcus faecium (GC 4557)” value (Enterococcus sp.) was 2 µg/mL (≈ 1.77 µM). The “MIC Coagulase Negative Staphylococcus (GC 4547)” value (Staphylococcus sp.) was 2 µg/mL (≈ 1.77 µM), the “MIC Coagulase Negative Staphylococcus (GC 4548)” value (Staphylococcus sp.) was 1 µg/mL (≈ 0.886 µM) and the “MIC Coagulase Negative Staphylococcus (GC 4549)” value (Staphylococcus sp.) was 2 µg/mL (≈ 1.77 µM). The “MIC Coagulase Negative Staphylococcus (GC 4551)” value (Staphylococcus sp.) was 4 µg/mL (≈ 3.55 µM), the “MIC Coagulase Negative Staphylococcus (GC 6257)” value (Staphylococcus sp.) was 2 µg/mL (≈ 1.77 µM) and the “MIC Staphylococcus aureus SMITH (GC 4543)” value (Staphylococcus sp.) was 2 µg/mL (≈ 1.77 µM). The “MIC Staphylococcus haemolyticus (GC 4546)” value (Staphylococcus sp.) was 2 µg/mL (≈ 1.77 µM), the “MIC Staphylococcus aureus-SMITH (GC 4543)” value (Staphylococcus sp.) was 2 µg/mL (≈ 1.77 µM) and the “MIC Streptococcus agalactiae (GC 4564)” value (Streptococcus sp.; [9]) was 16 µg/mL (≈ 14.2 µM). The “MIC Streptococcus pneumoniae (ATCC 6301)” value (Streptococcus sp.; [10]) was 16 µg/mL (≈ 14.2 µM), the “MIC Streptococcus pneumoniae (GC 1894)” value (Streptococcus sp.; [11]) was 16 µg/mL (≈ 14.2 µM) and the “MIC Streptococcus pneumoniae (GC 4565)” value (Streptococcus sp.; [12]) was 16 µg/mL (≈ 14.2 µM). For the same compound, the “MIC Streptococcus pyogenes (GC 4563)” value (Streptococcus sp.; [13]) was 8 µg/mL (≈ 7.09 µM), the “MIC Streptococcus agalactiae (GC 4564)” value (Streptococcus sp.) was 16 µg/mL (≈ 14.2 µM) and the “MIC Streptococcus pneumoniae (ATCC 6301)” value (Streptococcus sp.) was 16 µg/mL (≈ 14.2 µM). For the same compound, the “MIC Streptococcus pneumoniae (GC 1894)” value (Streptococcus sp.) was 16 µg/mL (≈ 14.2 µM), the “MIC Streptococcus pneumoniae (GC 4565)” value (Streptococcus sp.) was 16 µg/mL (≈ 14.2 µM) and the “MIC Streptococcus pyogenes (GC 4563)” value (Streptococcus sp.) was 8 µg/mL (≈ 7.09 µM). The “MIC Escherichia coli (ATCC 25922)” value (Escherichia coli) was 16 µg/mL (≈ 14.2 µM), the “MIC Escherichia coli (GC 4559)” value (Escherichia coli) was 16 µg/mL (≈ 14.2 µM) and the “MIC Escherichia coli (GC 4560)” value (Escherichia coli) was 4 µg/mL (≈ 3.55 µM).
With `CC(c1ccccc1)C1NC(=O)CNC(=O)C(CO)NC(=O)C(C(O)C2CNC(=N)N2C2OC(CO)C(O)C(O)C2O)NC(=O)C(C(O)C2CNC(=N)N2)NC(=O)C(Cc2ccc3oc(-c4ccc(N(C)C)cc4)nc3c2)NC1=O` (stereo not drawn) [Example 29, Cyclo[3-[2-[4-(dimethylamino)phenyl]-1,3-benzoxazol-5-yl]alanyl-3-(2-iminoimidazolidin-4-yl)-seryl-3-(3-hexopyranosyl-2-iminoimidazolidin-4-yl)serylserylglycyl-β-methylphenyl-alanyl]] the “MIC Enterococcus avium (GC 4558)” value (Enterococcus sp.; Enterococcus avium (GC 4558)) was 16 µg/mL (≈ 14.3 µM), the “MIC Enterococcus faecalis (ATCC 29212)” value (Enterococcus sp.; [1]) was 32 µg/mL (≈ 28.7 µM) and the “MIC Enterococcus faecalis (GC 2242)” value (Enterococcus sp.; [2]) was 32 µg/mL (≈ 28.7 µM). For the same compound, the “MIC Enterococcus faecalis (GC 2691)” value (Enterococcus sp.; [3]) was 32 µg/mL (≈ 28.7 µM), the “MIC Enterococcus faecalis (GC 3059)” value (Enterococcus sp.; [4]) was 64 µg/mL (≈ 57.4 µM) and the “MIC Enterococcus faecalis (GC 4552)” value (Enterococcus sp.; [5]) was 64 µg/mL (≈ 57.4 µM). For the same compound, the “MIC Enterococcus faecalis (GC 4553)” value (Enterococcus sp.; [6]) was 16 µg/mL (≈ 14.3 µM), the “MIC Enterococcus faecalis (GC 4554)” value (Enterococcus sp.; [7]) was 32 µg/mL (≈ 28.7 µM) and the “MIC Enterococcus faecalis (GC 6189)” value (Enterococcus sp.; [8]) was 32 µg/mL (≈ 28.7 µM). For the same compound, the “MIC Enterococcus faecium (GC 2243)” value (Enterococcus sp.; Enterococcus faecium (GC 2243)) was 16 µg/mL (≈ 14.3 µM), the “MIC Enterococcus faecium (GC 4556)” value (Enterococcus sp.; Enterococcus faecium (GC 4556)) was 64 µg/mL (≈ 57.4 µM) and the “MIC Enterococcus faecium (GC 4557)” value (Enterococcus sp.; Enterococcus faecium (GC 4557)) was 8 µg/mL (≈ 7.17 µM). The “MIC Enterococcus avium (GC 4558)” value (Enterococcus sp.) was 16 µg/mL (≈ 14.3 µM), the “MIC Enterococcus faecalis (ATCC 29212)” value (Enterococcus sp.) was 32 µg/mL (≈ 28.7 µM) and the “MIC Enterococcus faecalis (GC 2242)” value (Enterococcus sp.) was 32 µg/mL (≈ 28.7 µM). The “MIC Enterococcus faecalis (GC 2691)” value (Enterococcus sp.) was 32 µg/mL (≈ 28.7 µM), the “MIC Enterococcus faecalis (GC 3059)” value (Enterococcus sp.) was 64 µg/mL (≈ 57.4 µM) and the “MIC Enterococcus faecalis (GC 4552)” value (Enterococcus sp.) was 64 µg/mL (≈ 57.4 µM). For the same compound, the “MIC Enterococcus faecalis (GC 4553)” value (Enterococcus sp.) was 16 µg/mL (≈ 14.3 µM), the “MIC Enterococcus faecalis (GC 4554)” value (Enterococcus sp.) was 32 µg/mL (≈ 28.7 µM) and the “MIC Enterococcus faecalis (GC 6189)” value (Enterococcus sp.) was 32 µg/mL (≈ 28.7 µM). The “MIC Enterococcus faecium (GC 2243)” value (Enterococcus sp.) was 16 µg/mL (≈ 14.3 µM), the “MIC Enterococcus faecium (GC 4556)” value (Enterococcus sp.) was 64 µg/mL (≈ 57.4 µM) and the “MIC Enterococcus faecium (GC 4557)” value (Enterococcus sp.) was 8 µg/mL (≈ 7.17 µM). For the same compound, the “MIC Staphylococcus aureus-SMITH (GC 4543)” value (Staphylococcus sp.) was 8 µg/mL (≈ 7.17 µM), the “MIC Streptococcus agalactiae (GC 4564)” value (Streptococcus sp.; [9]) was 32 µg/mL (≈ 28.7 µM) and the “MIC Streptococcus pneumoniae (ATCC 6301)” value (Streptococcus sp.; [10]) was 32 µg/mL (≈ 28.7 µM). For the same compound, the “MIC Streptococcus pneumoniae (GC 1894)” value (Streptococcus sp.; [11]) was 32 µg/mL (≈ 28.7 µM), the “MIC Streptococcus pneumoniae (GC 4565)” value (Streptococcus sp.; [12]) was 32 µg/mL (≈ 28.7 µM) and the “MIC Streptococcus pyogenes (GC 4563)” value (Streptococcus sp.; [13]) was 16 µg/mL (≈ 14.3 µM). For the same compound, the “MIC Streptococcus agalactiae (GC 4564)” value (Streptococcus sp.) was 32 µg/mL (≈ 28.7 µM), the “MIC Streptococcus pneumoniae (ATCC 6301)” value (Streptococcus sp.) was 32 µg/mL (≈ 28.7 µM) and the “MIC Streptococcus pneumoniae (GC 1894)” value (Streptococcus sp.) was 32 µg/mL (≈ 28.7 µM). The “MIC Streptococcus pneumoniae (GC 4565)” value (Streptococcus sp.) was 32 µg/mL (≈ 28.7 µM), the “MIC Streptococcus pyogenes (GC 4563)” value (Streptococcus sp.) was 16 µg/mL (≈ 14.3 µM) and the “MIC Escherichia coli (ATCC 25922)” value (Escherichia coli) was 16 µg/mL (≈ 14.3 µM). The “MIC Escherichia coli (GC 4559)” value (Escherichia coli) was 16 µg/mL (≈ 14.3 µM) and the “MIC Escherichia coli (GC 4560)” value (Escherichia coli) was 4 µg/mL (≈ 3.59 µM).
